{
  "source": "paper PMC8121435",
  "about": "“Cork-in-bottle mechanism of inhibitor binding to mammalian complex I” (Science Advances, 2021)",
  "test_system": "complex I",
  "test": "NADH:ubiquinone-1 oxidoreduction in the presence of inhibitor",
  "type": "biochemical",
  "settings": "200 μM ubiquinone-1",
  "method": "All catalytic activity assays were conducted at 32°C in 96-well plates using a Molecular Devices Spectramax 384 plus plate reader. Catalysis was initiated by addition of 200 μM NADH and monitored at 340 and 380 nm (ε340–380 = 4.81 mM^−1 cm^−1). Linear rates were measured for all assays, inhibitors were added from dimethyl sulfoxide stock solutions as required, and inhibitor-insensitive rates (using either 1 μM piericidin A or 1.4 μM IACS-2858) were subtracted from each measured rate. Membrane samples were prepared as described previously ([17], [20], [59], [60]), diluted to 20 μg ml^−1 in 10 mM tris-SO4 (pH 7.5) and 250 mM sucrose, and supplemented with 3 μM horse heart cytochrome c (except for P. denitrificans, for which the activity is unaffected by the addition). Mouse, bovine, and yeast (Y. lipolytica) complex I were purified as described previously ([17], [20], [59]); diluted to 0.5 nM in 20 mM tris-HCl (pH 7.5), 0.15% asolectin, and 0.15% CHAPS; and assayed using either 200 μM dQ or 200 μM ubiquinone-1 (Sigma-Aldrich). Complex I was purified from P. denitrificans strain Pd1222 ([61]) and provided by O. D. Jarman (MRC Mitochondrial Biology Unit, University of Cambridge); it was assayed likewise but in 10 mM MES-HCl (pH 6.5), 25 mM NaCl, and 2 mM CaCl2. […]",
  "data": [
    {"compound": "CS(=O)(=O)C1CCN(c2cccc(Cn3cc(-c4nc(-c5ccc(OC(F)(F)F)cc5)no4)ccc3=O)c2)CC1", "note": "[IACS-2858, 1-(3-(4-(Methylsulfonyl)piperidin-1-yl)benzyl)-5-(3-(4-(trifluoromethoxy)phenyl)-1,2,4-oxadiazol-5-yl)pyridin-2(1H)-one]", "values": [
      {"measurement": "reduction of ubiquinone-1 in the presence of the inhibitor", "result": "No activity was observed"}
    ]}
  ]
}
